# Experimental data reported in paper PMC12163657 (ACS Omega, 2025).
# Columns and labels:
# [1] = Plasma protein binding, rapid equilibrium dialysis, dog plasma; assay type: in vitro ADME
# PR = target: T1, PR (Homo sapiens, UniProt P06401); experiment: Reporter assay of gene transcription activity, PR; assay type: cell-based
# T1 sequence (P06401 1-933): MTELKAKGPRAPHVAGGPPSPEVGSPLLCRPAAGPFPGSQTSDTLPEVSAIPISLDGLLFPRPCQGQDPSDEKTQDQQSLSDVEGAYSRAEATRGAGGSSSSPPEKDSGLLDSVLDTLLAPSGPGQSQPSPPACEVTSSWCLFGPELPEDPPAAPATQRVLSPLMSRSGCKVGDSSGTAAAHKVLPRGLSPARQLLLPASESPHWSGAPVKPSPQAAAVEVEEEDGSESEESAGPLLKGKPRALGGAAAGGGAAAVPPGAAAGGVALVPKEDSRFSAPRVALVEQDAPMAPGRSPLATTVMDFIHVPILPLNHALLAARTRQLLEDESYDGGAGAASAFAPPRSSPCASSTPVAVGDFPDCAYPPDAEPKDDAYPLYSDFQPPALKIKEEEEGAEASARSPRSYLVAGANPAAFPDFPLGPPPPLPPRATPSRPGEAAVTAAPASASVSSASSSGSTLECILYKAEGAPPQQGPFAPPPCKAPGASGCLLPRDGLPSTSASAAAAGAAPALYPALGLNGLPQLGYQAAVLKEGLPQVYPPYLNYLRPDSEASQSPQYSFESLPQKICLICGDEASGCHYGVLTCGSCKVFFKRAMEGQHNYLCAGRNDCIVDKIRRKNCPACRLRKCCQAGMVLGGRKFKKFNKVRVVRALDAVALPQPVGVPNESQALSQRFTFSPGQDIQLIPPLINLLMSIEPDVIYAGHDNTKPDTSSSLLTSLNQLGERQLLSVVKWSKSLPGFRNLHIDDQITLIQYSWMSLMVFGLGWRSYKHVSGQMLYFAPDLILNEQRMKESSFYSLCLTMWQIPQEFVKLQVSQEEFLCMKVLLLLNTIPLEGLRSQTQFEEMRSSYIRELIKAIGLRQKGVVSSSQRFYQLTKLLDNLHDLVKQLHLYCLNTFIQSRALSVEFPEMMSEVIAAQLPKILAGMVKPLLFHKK
# ESR1 Asp538Gly = target: T2, ESR1 Asp538Gly (Homo sapiens, UniProt P03372, D538G); experiment: AP; assay type: cell-based
# T2 sequence (P03372 1-595 D538G): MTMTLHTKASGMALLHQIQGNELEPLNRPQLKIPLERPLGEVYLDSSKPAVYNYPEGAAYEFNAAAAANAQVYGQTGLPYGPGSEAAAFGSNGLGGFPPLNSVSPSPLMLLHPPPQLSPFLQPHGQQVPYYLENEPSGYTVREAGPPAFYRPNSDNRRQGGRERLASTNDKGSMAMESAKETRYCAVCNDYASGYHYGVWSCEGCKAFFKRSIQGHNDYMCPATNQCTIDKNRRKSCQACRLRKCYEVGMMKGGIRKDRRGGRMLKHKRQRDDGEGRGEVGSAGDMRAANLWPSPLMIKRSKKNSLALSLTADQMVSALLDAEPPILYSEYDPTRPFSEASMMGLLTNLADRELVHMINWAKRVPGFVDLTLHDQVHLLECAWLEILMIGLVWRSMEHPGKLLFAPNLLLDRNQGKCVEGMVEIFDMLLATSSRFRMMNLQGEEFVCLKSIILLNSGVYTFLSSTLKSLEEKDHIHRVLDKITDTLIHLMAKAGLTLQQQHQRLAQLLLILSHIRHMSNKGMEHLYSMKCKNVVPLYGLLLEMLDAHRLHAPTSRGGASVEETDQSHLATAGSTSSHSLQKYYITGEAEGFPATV
# CAMA-1 ESR1 WT cells = experiment: CAMA-1 cell proliferation, ESR1 WT; assay type: cell-based; settings: Homo sapiens, CAMA-1, read-out: CAMA-1 cell prolif. pIC50 (converted)
# [2] = system: CAMA-1 ESR1 Tyr537Ser cells; experiment: CAMA-1 cell proliferation, ESR1 Tyr537Ser; assay type: cell-based; settings: Homo sapiens, CAMA-1, read-out: CAMA-1 cell prolif. pIC50 (converted)
# ST941/C cells = experiment: ST941/C cell proliferation; assay type: cell-based; settings: read-out: ST941/C cell prolif. pIC50 (converted)
# P-gp = P-gp (Homo sapiens, UniProt P08183); experiment: P-gp inhibition, membrane vesicles; assay type: in vitro ADME
# Sequence of P-gp (P08183 whole entry): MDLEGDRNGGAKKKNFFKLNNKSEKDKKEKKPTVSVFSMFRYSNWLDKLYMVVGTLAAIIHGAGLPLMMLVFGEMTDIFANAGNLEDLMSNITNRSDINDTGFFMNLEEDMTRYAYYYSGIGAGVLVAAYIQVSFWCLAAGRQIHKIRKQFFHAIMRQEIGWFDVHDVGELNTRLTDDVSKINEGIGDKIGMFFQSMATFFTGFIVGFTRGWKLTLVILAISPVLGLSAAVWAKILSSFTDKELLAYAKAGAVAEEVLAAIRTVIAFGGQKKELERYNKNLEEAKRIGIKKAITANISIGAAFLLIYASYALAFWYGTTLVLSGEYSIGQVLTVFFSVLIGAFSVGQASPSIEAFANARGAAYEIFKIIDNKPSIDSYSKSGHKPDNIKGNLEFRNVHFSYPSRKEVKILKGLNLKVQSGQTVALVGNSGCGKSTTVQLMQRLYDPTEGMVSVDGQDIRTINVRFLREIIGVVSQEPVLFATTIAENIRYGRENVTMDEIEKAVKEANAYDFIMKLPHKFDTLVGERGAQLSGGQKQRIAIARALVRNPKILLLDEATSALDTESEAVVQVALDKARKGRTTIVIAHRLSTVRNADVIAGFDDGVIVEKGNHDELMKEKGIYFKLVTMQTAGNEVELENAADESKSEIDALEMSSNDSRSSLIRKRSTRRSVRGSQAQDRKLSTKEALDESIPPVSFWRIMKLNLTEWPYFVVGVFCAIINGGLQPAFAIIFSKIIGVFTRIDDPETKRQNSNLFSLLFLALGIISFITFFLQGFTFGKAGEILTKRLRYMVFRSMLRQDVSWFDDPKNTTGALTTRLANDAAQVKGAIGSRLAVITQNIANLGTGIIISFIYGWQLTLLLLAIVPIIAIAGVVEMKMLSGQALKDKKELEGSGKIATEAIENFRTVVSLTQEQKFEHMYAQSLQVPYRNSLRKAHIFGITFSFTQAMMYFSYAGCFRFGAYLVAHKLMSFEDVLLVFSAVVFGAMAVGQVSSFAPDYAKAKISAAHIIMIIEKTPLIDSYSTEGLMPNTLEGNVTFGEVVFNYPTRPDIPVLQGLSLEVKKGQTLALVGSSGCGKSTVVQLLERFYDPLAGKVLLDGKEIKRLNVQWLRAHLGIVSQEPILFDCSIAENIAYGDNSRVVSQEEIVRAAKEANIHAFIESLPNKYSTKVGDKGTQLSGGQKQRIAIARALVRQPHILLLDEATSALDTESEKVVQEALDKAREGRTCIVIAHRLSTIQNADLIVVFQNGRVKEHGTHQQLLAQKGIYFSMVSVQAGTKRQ
# [3] = Single-dose pharmacokinetics, mouse; assay type: in vivo; settings: serum
# [4] = Single-dose pharmacokinetics, dog; assay type: in vivo; settings: Beagle, serum, 10 mg/kg
# [5] = Single-dose pharmacokinetics, monkey; assay type: in vivo; settings: serum
smiles,measurement,setting,value
"CCCN1CC(Oc2ccc([C@@H]3c4[nH]c5ccccc5c4C[C@@H](C)N3CC(C)(C)F)cc2)C1 [compound 21, (1R,3R)-2-(2-Fluoro-2-methylpropyl)-3-methyl-1-(4-((1-propylazetidin-3-yl)oxy)phenyl)-2,3,4,9-tetrahydro-1H-pyrido[3,4-b]indole]",Plasma free drug percentage,[1],0.04%
same,IC50,PR,> 3160 nM
same,agonist cross-reactivity on PR,PR; in words,no agonist cross-reactivity
same,"PR pIC50, antag. mode","PR; reporter assay, antag. mode",<5.5
same,IC50,ESR1 Asp538Gly,31.6 nM
same,IC50,CAMA-1 ESR1 WT cells,1.58 nM
same,IC50,[2],12.6 nM
same,IC50,ST941/C cells,31.6 nM
same,IC50,P-gp,4000 nM
same,AUC,"[3]; iv, 0.5 mg/kg",161 ng·h/mL
same,Cmax,"[3]; iv, 0.5 mg/kg",29 ng/mL
same,Vd,"[3]; iv, 0.5 mg/kg",27 L/kg
same,clearance,"[3]; iv, 0.5 mg/kg",51.7 mL/min/kg
same,half-life,"[3]; iv, 0.5 mg/kg",7 h
same,AUC,"[3]; po, 5 mg/kg",1030 ng·h/mL
same,Cmax,"[3]; po, 5 mg/kg",91 ng/mL
same,Tmax,"[3]; po, 5 mg/kg",1 h
same,bioavailability,"[3]; po, 5 mg/kg",72%
same,half-life,"[3]; po, 5 mg/kg",10 h
same,AUC,[4]; iv,41300 ng·h/mL
same,Cmax,[4]; iv,4060 ng/mL
same,Vd,[4]; iv,16 L/kg
same,clearance,[4]; iv,3.33 mL/min/kg
same,half-life,[4]; iv,63 h
same,AUC,[4]; po,33700 ng·h/mL
same,Cmax,[4]; po,1760 ng/mL
same,Tmax,[4]; po,1.5 h
same,bioavailability,[4]; po,89%
same,half-life,[4]; po,106 h
same,AUC,"[5]; iv, 3 mg/kg",3420 ng·h/mL
same,Cmax,"[5]; iv, 3 mg/kg",651 ng/mL
same,Vd,"[5]; iv, 3 mg/kg",49 L/kg
same,clearance,"[5]; iv, 3 mg/kg",13.3 mL/min/kg
same,half-life,"[5]; iv, 3 mg/kg",42 h
same,AUC,"[5]; po, 10 mg/kg",5090 ng·h/mL
same,Cmax,"[5]; po, 10 mg/kg",170 ng/mL
same,Tmax,"[5]; po, 10 mg/kg",8 h
same,bioavailability,"[5]; po, 10 mg/kg",44.4%
same,half-life,"[5]; po, 10 mg/kg",34 h
